Reference: patent publication US20230407243A1, “GENETIC PLATFORM TO INVESTIGATE THE FUNCTIONS OF BACTERIAL DRUG EFFLUX PUMPS” (priority 2022, published 2023)
Values after ≈ are worked out from the molar mass of the structure shown. Read-outs that look alike come from different tables or passages of the source.

Columns and labels:
Assay type in all cases: cell-based, Escherichia coli
EKO-35 (empty pCA24N) = assay: microbe, parasite or virus in culture; settings: for MIC, EKO-35 (empty pCA24N), Chlor + / MIC, EKO-35 (empty pCA24N), Chlor − / MIC: 0.1 mM IPTG; for MIC, EKO-35 (empty pCA24N), Chlor +: 4 μg/mL chloramphenicol selection; for MIC, EKO-35 (empty pCA24N), Chlor −: no plasmid selection; for MIC: EKO-35 empty pCA24N
EKO-35 araC::acrB Pore = assay: MIC susceptibility profiling, porinated efflux platform; settings: for Fold changes of MICs: EKO-35 araC::acr-B Pore compared to EKO-35-Pore; for Minimum inhibitory concentration, EKO-35 araC::acrB Pore: Table 14A, porinated, technical duplicate
Outline: (§1)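 Strains carry the fhuA ΔC/Δ4L pore integrated between glmS and pstS under a constitutive promoter, with pore activity checked by vancomycin susceptibility. Overnight LB cultures were adjusted in PBS pH 7.4 to OD600 ~1.0 and diluted 1/2000 into MHB II. 2-fold compound titrations were read by OD600 after 18 h at 37 °C.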

EKO-35 araC::acrD Pore = assay: as above; settings: for Fold changes of MICs: EKO-35 araC::acrD Pore compared to EKO-35-Pore
Outline: as §1

[1] = tested on: EKO-35 araC::acrBD408A Pore; assay: as above; settings: for Fold changes of MICs: EKO-35 araC::acrBD408A Pore compared to EKO-35-Pore
Outline: as §1

EKO-35 araC::mdtBC Pore = assay: as above; settings: for Fold changes of MICs: EKO-35 araC::mdtBC Pore compared to EKO-35-Pore
Outline: as §1

EKO-35 araC::emrAB Pore = assay: as above; settings: for Fold changes of MICs: EKO-35 araC::emrAB Pore compared to EKO-35-Pore
Outline: as §1

EKO-35 araC::mexCD Pore = assay: as above; settings: for Fold changes of MICs: EKO-35 araC::mexCD Pore compared to EKO-35-Pore
Outline: as §1

EKO-35-Pore = assay: MIC susceptibility profiling, porinated strain; settings: for Fold changes of MICs: EKO-35-Pore compared to EKO-35-Pore (reference); for Minimum inhibitory concentration (MIC), Pore EKO-35 / Minimum inhibitory concentration, EKO-35-Pore / MIC: technical duplicate; for MIC: Escherichia coli
Outline: as §1

EKO-35 acrBD408A = settings: EKO-35 acrBD408A
Outline: (§2)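 Interaction of PAβN or NMP with antibiotics is scored as FICI = CA/MICA + CB/MICB, from MICs (no growth, OD600) in MHB II checkerboard microdilution following CLSI. Solvent controls accompany every plate.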

ΔtolC = settings: ΔtolC
Outline: as §2

[2] = Table 14A, porinated, technical duplicate
[3] = EKO-35 araC::acrBD408A Pore, technical duplicate
[4] = EKO-35 araC::mdtBC Pore, technical duplicate
[5] = EKO-35 araC::emrAB Pore, technical duplicate
[6] = EKO-35 araC::mexCD Pore, technical duplicate
[7] = antibiotic alone (PAβN checkerboard)
[8] = antibiotic in combination with PAβN

Row | Compound | MIC, EKO-35 (empty pCA24N), Chlor + (EKO-35 (empty pCA24N)) [μg/mL] | MIC, EKO-35 (empty pCA24N), Chlor − (EKO-35 (empty pCA24N)) [μg/mL] | Fold changes of MICs (EKO-35 araC::acrB Pore) [fold] | Minimum inhibitory concentration, EKO-35 araC::acrB Pore (EKO-35 araC::acrB Pore) [µg/mL] | Fold changes of MICs (EKO-35 araC::acrD Pore) [fold] | Minimum inhibitory concentration, EKO-35 araC::acrD Pore (EKO-35 araC::acrD Pore; [2]) [µg/mL] | Minimum inhibitory concentration [1, 3] [µg/mL] | Fold changes of MICs (EKO-35 araC::mdtBC Pore) [fold] | Minimum inhibitory concentration (EKO-35 araC::mdtBC Pore; [4]) [µg/mL] | Fold changes of MICs (EKO-35 araC::emrAB Pore) [fold] | Minimum inhibitory concentration (EKO-35 araC::emrAB Pore; [5]) [µg/mL] | Fold changes of MICs (EKO-35 araC::mexCD Pore) [fold] | Minimum inhibitory concentration (EKO-35 araC::mexCD Pore; [6]) [µg/mL] | Fold changes of MICs (EKO-35-Pore) [fold] | Minimum inhibitory concentration (MIC), Pore EKO-35 (EKO-35-Pore; Table 10, with pore) [µg/mL] | Minimum inhibitory concentration, EKO-35-Pore (EKO-35-Pore; Table 14A, porinated) [µg/mL] | Fold changes of MICs [1] [fold] | other results
1 | O=C(Nc1ccccc1C(=O)Nc1nnc(C(F)(F)F)s1)c1ccccc1Cl [compound 19] | >5 | >5 | 1 | 320 | 1 | 320 | 320 | 1 | 320 | 1 | 320 | 1 | 320 | 1 | 320 | 320 |  | 
2 | N#Cc1ccc(-c2c(NC(=O)C(Cl)Cl)oc(-c3cccs3)c2C#N)cc1 [compound 2] | >5 | >5 | 1 | 320 | 1 | 320 | 320 | 1 | 320 | 1 | 320 | 1 | 320 | 1 | 320 | 320 | 1 | 
3 | CO[C@@H]1[C@@H](OC(N)=O)[C@@H](O)[C@H](Oc2ccc3c(O)c(NC(=O)c4ccc(O)c(CC=C(C)C)c4)c(=O)oc3c2C)OC1(C)C [novobiocin] |  |  | 512 |  | 32 |  |  | 4 |  | 8 |  | 4 |  | 1 |  |  | 1 | MIC (EKO-35 (empty pCA24N); Chlor + (4 μg/mL chloramphenicol)): 3.13 µg/mL; MIC (EKO-35 (empty pCA24N); Escherichia coli, Chlor −, read-out: MIC): 3.13 µg/mL (≈ 5.11 µM); fold difference in susceptibility between EKO-35 and ΔtolC (EKO-35 (empty pCA24N); while profiling the ASKA EKO-35 strains): 2 fold; MIC (EKO-35 araC::acrD Pore; Escherichia coli, Table 14A, porinated, technical duplicate, read-out: Minimum inhibitory concentration, EKO-35 araC::acrD Pore): 25 µg/mL; MIC ([1]; Escherichia coli, EKO-35 araC::acrBD408A Pore, technical duplicate, read-out: Minimum inhibitory concentration): 0.391 µg/mL; MIC (EKO-35 araC::mdtBC Pore; Escherichia coli, EKO-35 araC::mdtBC Pore, technical duplicate, read-out: Minimum inhibitory concentration): 3.12 µg/mL; MIC (EKO-35 araC::emrAB Pore; Escherichia coli, EKO-35 araC::emrAB Pore, technical duplicate, read-out: Minimum inhibitory concentration): 6.25 µg/mL; MIC (EKO-35 araC::mexCD Pore; Escherichia coli, EKO-35 araC::mexCD Pore, technical duplicate, read-out: Minimum inhibitory concentration): 3.12 µg/mL; Effect (EKO-35 acrBD408A; PAβN + antibiotic): Synergistic; FICI (EKO-35 acrBD408A; PAβN + antibiotic): 0.375; MICb Alone (EKO-35 acrBD408A; [7]): 8 µg/mL; MICb Combined (EKO-35 acrBD408A; [8]): 2 µg/mL; Effect (ΔtolC; PAβN + antibiotic): Synergistic; FICI (ΔtolC; PAβN + antibiotic): 0.500; MICb Alone (ΔtolC; [7]): 2 µg/mL; MICb Combined (ΔtolC; [8]): 0.5 µg/mL; MIC (EKO-35-Pore; Table 10, with pore, read-out: Minimum inhibitory concentration (MIC), Pore EKO-35): 0.781 µg/mL; MIC (EKO-35-Pore; Table 14A, porinated, read-out: Minimum inhibitory concentration, EKO-35-Pore): 0.781 µg/mL
